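Following 48 hours of exposure in 96-well plates, responses at five concentrations were used to interpolate endpoints linearly. GI50: concentration for 50% inhibition of growth.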 The source made the active and inactive calls. No stated cut-off is given here; in the data, active = GI50 up to about 1.1 µM and inactive = higher.
Key:
Experiment in all cases: inhibition of tumour cell growth, NCI panel, 48 h
KM-20L2 = test system: KM-20L2
LXFL 529 = test system: LXFL 529
SNB-78 = test system: SNB-78
RXF 631 = test system: RXF 631
XF498 = test system: XF498
DMS-273 = test system: DMS-273
DMS-114 = test system: DMS-114
M19-MEL = test system: M19-MEL
HOP-18 = test system: HOP-18

Structure (SMILES)	GI50 (KM-20L2)	GI50 (LXFL 529)	GI50 (SNB-78)	GI50 (RXF 631)	GI50 (XF498)	GI50 (DMS-273)	GI50 (DMS-114)	GI50 (M19-MEL)	GI50 (HOP-18)
N#CC(C#N)=C1NC(=O)C(c2ccccc2)C(=O)N1 (stereo not drawn)	> 100 µM (inactive)	> 100 µM (inactive)	> 100 µM (inactive)	> 100 µM (inactive)	> 100 µM (inactive)	> 100 µM (inactive)	> 100 µM (inactive)	> 100 µM (inactive)	
CCOC(=O)C(C)NC(=O)NC12CC3CC(CC(F)(C3)C1)C2 (stereo not drawn)	> 100 µM (inactive)	> 100 µM (inactive)	27.9 µM (inactive)		27.4 µM (inactive)	> 100 µM (inactive)	> 100 µM (inactive)	61.1 µM (inactive)	
COC(=O)c1cc(-c2cccn2C)c2c(c1C(=O)OC)c1ccccc1n2C		40.2 µM (inactive)	> 100 µM (inactive)	80.4 µM (inactive)	> 100 µM (inactive)	34.1 µM (inactive)	40.3 µM (inactive)		> 100 µM (inactive)
CC(=O)O[C@H]1[C@@H]2[C@@H]3[C@@H](C[C@H]1C)[C@@H](C)CO[C@@]1(C)CC/C=C(/C)C[C@@H]2O[C@@H]31	> 100 µM (inactive)	> 100 µM (inactive)		> 100 µM (inactive)	> 100 µM (inactive)	> 100 µM (inactive)	> 100 µM (inactive)	> 100 µM (inactive)	> 100 µM (inactive)
CC1(C)CC(=O)C(C(=O)Nc2cccs2)=C(O)C1	38.2 µM (inactive)	31.8 µM (inactive)	36.1 µM (inactive)	36.5 µM (inactive)	43 µM (inactive)	25.2 µM (inactive)		41.2 µM (inactive)	21.6 µM (inactive)
CC1=C2[C@@H](c3ccccc3)C3C=CC2(c2ccccc23)N(C(=O)Nc2cccc3ccccc23)C1=O (stereo partly drawn)	> 100 µM (inactive)	> 100 µM (inactive)	> 100 µM (inactive)		> 100 µM (inactive)	> 100 µM (inactive)	> 100 µM (inactive)		> 100 µM (inactive)
N#CC(/C(CCC(=O)Nc1ccc(Cl)cc1)=N/NC(=O)c1cc2ccccc2cc1O)c1ccccc1 (stereo not drawn)	28.6 µM (inactive)	43 µM (inactive)	66.1 µM (inactive)		54.8 µM (inactive)		25.4 µM (inactive)	33.7 µM (inactive)	21.5 µM (inactive)
CCN(CC)CC[n+]1ccc2c(C)c3[nH]c4ccc(O)cc4c3c(C)c2c1	8.47 µM (inactive)	2.5 µM (inactive)	3.5 µM (inactive)			2.92 µM (inactive)	0.767 µM (active)	1.21 µM (inactive)	4.23 µM (inactive)
O=C1NC(Cc2ccc(O)cc2)C(=O)N2CCCC12 (stereo not drawn)	> 100 µM (inactive)	> 100 µM (inactive)	> 100 µM (inactive)	> 100 µM (inactive)		> 100 µM (inactive)	> 100 µM (inactive)	> 100 µM (inactive)	> 100 µM (inactive)
O=C(O)CCC(=O)Oc1ccc(O)c2c1CCCC2=O	> 100 µM (inactive)	> 100 µM (inactive)	> 100 µM (inactive)		0.316 µM (active)	> 100 µM (inactive)	> 100 µM (inactive)	> 100 µM (inactive)	> 100 µM (inactive)
Cn1ccnc1CCc1ccc(Cl)cc1Cl	> 100 µM (inactive)	> 100 µM (inactive)	> 100 µM (inactive)	> 100 µM (inactive)		> 100 µM (inactive)	56.8 µM (inactive)	> 100 µM (inactive)	> 100 µM (inactive)
CCOC(=O)C1CC(=O)C=C2CCCCC21 (stereo not drawn)		> 100 µM (inactive)	> 100 µM (inactive)	> 100 µM (inactive)	> 100 µM (inactive)	> 100 µM (inactive)	> 100 µM (inactive)	> 100 µM (inactive)	
O=c1[nH]c(=O)n([C@H]2C[C@@H](CO)[C@@H](O)C2)cc1I	> 100 µM (inactive)	> 100 µM (inactive)	> 100 µM (inactive)			> 100 µM (inactive)	> 100 µM (inactive)	> 100 µM (inactive)	> 100 µM (inactive)
COc1ccc2nc(-c3ccc(O)cc3)ccc2c1	> 100 µM (inactive)	> 100 µM (inactive)	97.1 µM (inactive)				> 100 µM (inactive)	> 100 µM (inactive)	> 100 µM (inactive)
CCOC(=O)Nc1ccc2c(c1)N(C(=O)CCN(CC)CC)c1ccccc1S2 [ETHACIZINE]	19.3 µM (inactive)	19 µM (inactive)	5.18 µM (inactive)		18.1 µM (inactive)	27 µM (inactive)	18.2 µM (inactive)	32.1 µM (inactive)	42 µM (inactive)
COc1ccc(/C=C2\CCC(Cc3ccccc3)(CN(C)C)C2=O)cc1 (stereo not drawn)	23.4 µM (inactive)	36.1 µM (inactive)	35.5 µM (inactive)			15.2 µM (inactive)	18.2 µM (inactive)	28.4 µM (inactive)	> 100 µM (inactive)
Cc1ccc(Nc2nc3c(s2)C(=O)c2ccccc2C3=O)c(C)c1	37.3 µM (inactive)	15 µM (inactive)	15.2 µM (inactive)		17.3 µM (inactive)	19.6 µM (inactive)	8.59 µM (inactive)	2.37 µM (inactive)	4.57 µM (inactive)
COc1ccc2c(c1)Oc1cc(O)ccc1[C@H]2c1ccccc1C(=O)NC(C)c1ccccc1 (stereo partly drawn)	19.1 µM (inactive)	15.3 µM (inactive)	16.6 µM (inactive)			14.5 µM (inactive)	11.5 µM (inactive)	15.7 µM (inactive)	
C[C@]12CCC(=O)C=C1CC[C@@H]1[C@@H]2C(=O)C[C@@]2(C)[C@H]1CC[C@]2(O)C(=O)CO [CORTISONE]	> 100 µM (inactive)	> 100 µM (inactive)			> 100 µM (inactive)	> 100 µM (inactive)	> 100 µM (inactive)	> 100 µM (inactive)	> 100 µM (inactive)
CC[C@@H]1OC2(C)CC(S(=O)(=O)c3ccccc3O)CC1O2 (stereo partly drawn)	> 100 µM (inactive)	> 100 µM (inactive)		> 100 µM (inactive)		> 100 µM (inactive)		> 100 µM (inactive)	> 100 µM (inactive)
CCCC(=O)N[C@H]1C2C3CC4C5CC(C42)C1(C)C53 (stereo partly drawn)	> 100 µM (inactive)		> 100 µM (inactive)			> 100 µM (inactive)		> 100 µM (inactive)	> 100 µM (inactive)
CCCCNCC(=O)O[C@]1(CC)C(=O)OCc2c1cc1n(c2=O)Cc2cc3ccccc3nc2-1	1.24 µM (inactive)	3.21 µM (inactive)	2.43 µM (inactive)	1.7 µM (inactive)	0.305 µM (active)	< 0.01 µM (active)	0.121 µM (active)	0.63 µM (active)	0.44 µM (active)
CC1(C)OCC([C@H]2CC23SCCCS3)O1 (stereo partly drawn)	> 100 µM (inactive)	> 100 µM (inactive)	> 100 µM (inactive)		> 100 µM (inactive)	> 100 µM (inactive)	> 100 µM (inactive)		> 100 µM (inactive)
C[C@H]1CC[P+](Cc2ccccc2)(c2ccccc2)C1 (stereo partly drawn)	93.5 µM (inactive)	26.4 µM (inactive)			< 0.01 µM (active)	> 100 µM (inactive)	23 µM (inactive)	26.8 µM (inactive)	> 100 µM (inactive)
COCCOCOC(C)(C)[C@H](CCOC(C)=O)O[Si](c1ccccc1)(c1ccccc1)C(C)(C)C	18.7 µM (inactive)	7.33 µM (inactive)	22.9 µM (inactive)	13.4 µM (inactive)		5.3 µM (inactive)	12.6 µM (inactive)	13.1 µM (inactive)	30.3 µM (inactive)
CCCCCCCCC[C@@H]1CC(=O)OCC2OC(O[C@H](CCCCCCCCC)CC(=O)OCC3OC(O[C@H](CCCCCCCCC)CC(=O)OCC4OC(O1)C(O)C(O)C4O)C(O)C(O)C3O)C(O)C(O)C2O (stereo partly drawn)	6.46 µM (inactive)	6.53 µM (inactive)	17.3 µM (inactive)		7.74 µM (inactive)	8.65 µM (inactive)	8.89 µM (inactive)	4.42 µM (inactive)	< 0.01 µM (active)
NC(=O)Cn1c(=O)[nH]c(=O)c2[nH]cnc21	> 100 µM (inactive)	> 100 µM (inactive)				> 100 µM (inactive)	> 100 µM (inactive)	> 100 µM (inactive)	> 100 µM (inactive)
Cc1cccc(NC(=O)/C(=N\N)C(c2cnc3ccc([N+](=O)[O-])cc3n2)[N+](=O)[O-])c1C (stereo not drawn)	71.8 µM (inactive)	> 100 µM (inactive)		> 100 µM (inactive)	> 100 µM (inactive)	> 100 µM (inactive)	51.3 µM (inactive)	> 100 µM (inactive)	> 100 µM (inactive)
